The results in this text go back to patent US10174202B2, “Dyes with phosphinic acid, phosphinate, phosphonate and phosphonamidate substituents as auxochromic groups and methods for preparing the same” (Max-Planck-Gesellschaft zur Foerderung der Wissenschaften …, priority 2017, dated 2019).

Structures are written as SMILES. Where “and” joins values, the source holds several entries; their conditions need not be identical. Identical values can stand only once. Counter-ions that a name gives are not always drawn. Marks after values point to notes of the source that are not given here.

One data set is described as follows: Fluorescence lifetime. Type of data set: physicochemical.
Data set [1] is described as follows: Absorption spectroscopy (UV/Vis). In kind it is physicochemical. The method, then: (§1) Absorption spectra were recorded with a Varian Cary 4000 UV-Vis double-beam spectrophotometer (Agilent Technologies, USA). For the determination of the absorption spectra, quartz cells with a 1 cm path length were used. Emission spectra and fluorescence quantum yield were obtained on a Quantaurus-QY Absolute PL quantum yield spectrometer C11347 (Hamamatsu Photonics, Japan) or on a Varian Cary Eclipse fluorescence spectrometer (Agilent Technologies, USA).

Data set [2] in a line: Emission spectra and fluorescence quantum yield. Type of data set: physicochemical. Here is the method:
as §1

As to `COP(=O)(OC)c1c(-c2nc3ccccc3s2)c(=O)oc2cc(N3CC(O)C3)ccc12` [Compound 2, Dimethyl [3-(benzo[d]thiazol-2-yl)-7-(3-hydroxyazetidin-1-yl)-2-oxo-2H-chromen-4-yl]phosphonate], the fluorescence lifetime in “Fluorescence lifetime” (in acetonitrile) is 1.99^a ns. Also, in data set [1] (in acetonitrile), the Absorption max. is 424 nm and the “ε at absorption max.” value turned out to be 19000 M⁻¹ cm⁻¹. Also, in data set [2] (in acetonitrile), the Emission max. turned out to be 651 nm; the “QY (fluorescence quantum yield, Φfl)” value worked out at 0.16; the Stokes shift is given as 227^a nm.
For the compound `CCN(CC)c1ccc2c(P(=O)(OC(C)(C)C)OC(C)(C)C)c(-c3nc4ccccc4s3)c(=O)oc2c1` [Compound 3, Di-tert-butyl [3-(benzo[d]thiazol-2-yl)-7-(diethylamino)-2-oxo-2H-chromen-4-yl]phosphonate], in the data set “Fluorescence lifetime” (in acetonitrile), the fluorescence lifetime is given as 2.49^a ns. Also, in data set [1] (in acetonitrile), the Absorption max. stood at 434 nm and the “ε at absorption max.” value is 39000 M⁻¹ cm⁻¹. Further, in data set [2] (in acetonitrile), the Emission max. was determined as 658 nm; the “QY (fluorescence quantum yield, Φfl)” value was 0.29; the Stokes shift is recorded as 224^a nm.
`CCN(CC)c1ccc2c(P(=O)(O)O)c(-c3nc4ccccc4s3)c(=O)oc2c1` [Compound 4, [3-(Benzo[d]thiazol-2-yl)-7-(diethylamino)-2-oxo-2H-chromen-4-yl]phosphonic acid] showed a fluorescence lifetime in the data set “Fluorescence lifetime” (in acetonitrile) of 2.91 ns. In the data set “Fluorescence lifetime” (in methanol + 1% v/v trifluoroacetic acid), the fluorescence lifetime is 1.85 ns and 0.93 ns. Also, in data set [1] (in aq. PBS, pH 7.4), the Absorption max. was determined as 419 nm and the “ε at absorption max.” value amounted to 22000 M⁻¹ cm⁻¹. Also, in data set [2] (in acetonitrile), the Emission max. worked out at 613 nm and the “QY (fluorescence quantum yield, Φfl)” value came to 0.04. In addition, in data set [2] (in aq. PBS, pH 7.4), the Emission max. worked out at 613 nm; the “QY (fluorescence quantum yield, Φfl)” value came to 0.04; the Stokes shift was 194^b nm.
Compound `CN(C)c1ccc2c(P(=O)(Oc3ccccc3C(=O)[O-])N(C)C)c3ccc(=[N+](C)C)cc-3oc2c1` (centres unmarked) [Compound 9, 2-[[3,6-Bis(dimethylamino)-9H-xanthenylium-9yl](dimethylamino)phosphoryloxy]-benzoate] returned a fluorescence lifetime in the data set “Fluorescence lifetime” (in aq. PBS, pH 7.4) of 1.88 ns. In data set [1] (in aq. PBS, pH 7.4), the Absorption max. is given as 603 nm and the “ε at absorption max.” value stood at 69000 M⁻¹ cm⁻¹. For the same compound, in data set [1] (in methanol), the Absorption max. is given as 589 nm and the “ε at absorption max.” value was 49000 M⁻¹ cm⁻¹. In data set [2] (in aq. PBS, pH 7.4), the Emission max. stood at 638 nm; the “QY (fluorescence quantum yield, Φfl)” value is on record as 0.09; the Stokes shift was 35 nm. Moreover, in data set [2] (in methanol), the Emission max. came to 622 nm; the “QY (fluorescence quantum yield, Φfl)” value amounted to 0.36; the Stokes shift was determined as 33 nm. For the same compound, in “Stability of the dyes”, the Stability entry was “moderate”.
For the compound `CCOP(=O)(c1c2ccc(=[N+](C)C)cc-2oc2cc(N(C)C)ccc12)N(C)CCC(=O)O.O=C([O-])C(F)(F)F` (centres unmarked) [Compound 10], in data set [1] (in acetonitrile), the Absorption max. was determined as 615 nm and the “ε at absorption max.” value was 22224 M⁻¹ cm⁻¹. Moreover, in data set [1] (in aq. PBS, pH 7.4), the Absorption max. was found to be 625 nm and the “ε at absorption max.” value was determined as 13816 M⁻¹ cm⁻¹. Besides, in data set [2] (in acetonitrile), the Emission max. is recorded as 652 nm; the “QY (fluorescence quantum yield, Φfl)” value was 0.46; the Stokes shift is reported as 37 nm. Moreover, in data set [2] (in aq. PBS, pH 7.4), the Emission max. came to 670 nm; the “QY (fluorescence quantum yield, Φfl)” value is reported as 0.15; the Stokes shift is 45 nm. Moreover, the stability of solutions result in the data set “Stability of the dyes” (protic solvents (MeOH, H2O), particularly in the presence of acids, forms compound 11) is listed as “spontaneously decompose”.
In turn, `CC[N+](CC)=c1ccc2c(P(=O)(OC)OC)c3c(oc-2c1)-c1ccc(N(C)C)cc1CC3.O=C([O-])C(F)(F)F` [Compound 20, 10-(Diethylamino)-7-(dimethoxyphosphoryl)-3-(dimethylamino)-6,7-dihydro-5H-benzo[c]xanthenylium trifluoroacetate] yielded a fluorescence lifetime in the data set “Fluorescence lifetime” (in acetonitrile) of 1.50 ns. Further, in data set [1] (in acetonitrile), the Absorption max. is given as 681 nm and the “ε at absorption max.” value was 40000 M⁻¹ cm⁻¹. In addition, in data set [1] (in aq. PBS, pH 7.4), the Absorption max. is 693 nm and the “ε at absorption max.” value turned out to be 29000 M⁻¹ cm⁻¹. Further, the Stokes shift in data set [2] (in acetonitrile) was found to be 56 nm. In data set [2] (in acetonitrile, trifluoroacetate), the Emission max. is 737 nm and 754 nm. Besides, in data set [2] (in aq. PBS, pH 7.4), the Emission max. is 754 nm; the “QY (fluorescence quantum yield, Φfl)” value stood at 0.02; the Stokes shift is given as 61 nm.
Take `COP(=O)([c+]1c2ccc(N(C)C)cc2sc2cc(N(C)C)ccc21)N(C(C)C)C(C)C.O=C([O-])C(F)(F)F` (centres unmarked) [Compound 21, 9-[(Diisopropylamino)(methoxy)phosphoryl]-3,6-bis(dimethylamino)-9H-thioxanthen-9-ylium trifluoroacetate]: in “Fluorescence lifetime” (in acetonitrile), the fluorescence lifetime was 0.77 ns. Besides, in data set [1] (in acetonitrile), the Absorption max. came out at 654 nm and the “ε at absorption max.” value came to 64000 M⁻¹ cm⁻¹. Also, in data set [2] (in acetonitrile), the Emission max. was 728 nm; the “QY (fluorescence quantum yield, Φfl)” value is reported as 0.10; the Stokes shift is listed as 74^a nm. In addition, in “Stability of the dyes”, the Stability result is “moderate”.
As for `CC(C)OP(=O)(OC(C)C)C1=C2C=CC(=[N+](C)C)C=C2C(C)(C)c2cc(N(C)C)ccc21` [Compound 24, 9-(Diisopropoxyphosphoryl)-3,6-bis(dimethylamino)-10,10-dimethyl-9,10-dihydro-anthracenylium trifluoromethanesulfonate], the Stability result in the data set “Stability of the dyes” is listed as “moderate”.
Still for that read-out and setting: the same measure for `C=CCOP(=O)(C1=C2C=CC(=[N+](C)C)C=C2C(C)(C)c2cc(N(C)C)ccc21)N(C(C)C)C(C)C` (centres unmarked) [Compound 25, 9-[(Allyloxy)(diisopropylamino)phosphoryl]-3,6-bis(dimethylamino)-10,10-dimethyl-9,10-dihydroanthracenylium trifluoromethanesulfonate]: “poor”.
For the compound `C=CCOP(=O)(C1=c2cc3c(cc2C(C)(C)c2cc4c(cc21)CCCN4CCOC)=[N+](CCOC)CCC3)N(C(C)C)C(C)C` (centres unmarked) [Compound 26, 6-[(Allyloxy)(diisopropylamino)phosphoryl]-1,11-bis(2-methoxyethyl)-13,13-dimethyl-1,2,3,4,6,8,9,10,11,13-decahydrobenzo[1,2-g:5,4-g′]diquinolin-6-ylium trifluoroacetate], in data set [1] (in acetonitrile), the Absorption max. is 724 nm and the “ε at absorption max.” value was determined as 46700 M⁻¹ cm⁻¹. Also, in data set [1] (in aq. PBS, pH 7.4), the Absorption max. turned out to be 734 nm and the “ε at absorption max.” value is 34700 M⁻¹ cm⁻¹. In addition, in data set [2] (in acetonitrile), the Emission max. is 812 nm; the “QY (fluorescence quantum yield, Φfl)” value came to 0.08; the Stokes shift is recorded as 88 nm. Besides, in data set [2] (in aq. PBS, pH 7.4), the Emission max. is on record as 860 nm; the “QY (fluorescence quantum yield, Φfl)” value was found to be 0.05; the Stokes shift worked out at 126 nm. The Stability entry in the data set “Stability of the dyes” is on record as “poor”.
Take `COP(=O)([C+]1c2ccc(N(C)C)cc2-c2cccc3c(N(C)C)ccc1c23)N(C(C)C)C(C)C.O=C([O-])C(F)(F)F` (centres unmarked) [Compound 28, 7-[(Diisopropylamino)(methoxy)phosphoryl]-4,10-bis(dimethylamino)-7H-benzo[de]anthracen-7-ylium trifluoroacetate]: in data set [1] (in aq. PBS, pH 7.4), the Absorption max. was found to be 644 nm and the “ε at absorption max.” value came out at 7600 M⁻¹ cm⁻¹. In data set [2] (in aq. PBS, pH 7.4), the Emission max. was 782 nm; the “QY (fluorescence quantum yield, Φfl)” value is 0.04; the Stokes shift is reported as 138^b nm. In addition, the Stability entry in the data set “Stability of the dyes” is “poor”.
